Laboratory results taken from PubChem BioAssay (NCI).
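Dose response: 5 concentrations. Exposure: 48 h. Format: 96-well plates. Endpoint: linear interpolation; highest concentration if not reached. The concentration for 50% growth inhibition is given as GI50. TGI marks complete inhibition of growth.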

Columns and labels:
Experiment in all cases: DTP human tumour cell line panel, 48 h
A549 NSCLC = tested on: A549 NSCLC
MALME-3M melanoma = tested on: MALME-3M melanoma
MOLT-4 leukemia = tested on: MOLT-4 leukemia
NCI-H226 lung = tested on: NCI-H226 lung
PC-3 prostate = tested on: PC-3 prostate
RXF 393 renal = tested on: RXF 393 renal
SF-295 CNS = tested on: SF-295 CNS
SW-620 colon = tested on: SW-620 colon
TK-10 renal = tested on: TK-10 renal
SR leukemia = tested on: SR leukemia

Row | Compound | TGI (A549 NSCLC) [µM] | TGI (MALME-3M melanoma) [µM] | TGI (MOLT-4 leukemia) [µM] | TGI (NCI-H226 lung) [µM] | TGI (PC-3 prostate) [µM] | TGI (RXF 393 renal) [µM] | TGI (SF-295 CNS) [µM] | TGI (SW-620 colon) [µM] | TGI (TK-10 renal) [µM] | GI50 (A549 NSCLC) [µM] | GI50 (MALME-3M melanoma) [µM] | GI50 (MOLT-4 leukemia) [µM] | GI50 (NCI-H226 lung) [µM] | GI50 (RXF 393 renal) [µM] | GI50 (SF-295 CNS) [µM] | GI50 (SR leukemia) [µM] | TGI (SR leukemia) [µM] | GI50 (SW-620 colon) [µM] | GI50 (TK-10 renal) [µM] | GI50 (PC-3 prostate) [µM]
1 | COc1ccc(C(=O)C(Br)C(Br)C(=O)O)cc1 (stereo not drawn) | > 100 | 46.2 | 36.1 | > 100 | > 100 | 56.4 | > 100 | 52.3 | > 100 |  |  |  |  |  |  |  |  |  |  | 
2 | CCCCNC(=O)Oc1ccc2c(=O)c3sc4c(=O)c5ccccc5c(=O)c4c3c(=O)c2c1 | 0.481 | 0.273 | 6.57 | 2.47 |  | 2.54 | 0.373 | 1.58 | 3.78 | 0.209 | 0.117 | 2.17 | 1.12 | 1.2 | 0.176 | 0.77 | > 100 | 0.409 | 2.19 | 
3 | COc1cc2ccnc3c2c(c1OC)CC1CC(O)C(OC)CC31 (stereo not drawn) | > 100 | > 100 | > 100 | > 100 |  |  | > 100 | > 100 | > 100 |  |  |  |  |  |  |  | > 100 |  |  | 
4 | O=C1NC(=O)C(=O)C(c2nc3ccccc3s2)C1=O | > 100 | > 100 | > 100 | > 100 |  | > 100 | > 100 | > 100 | > 100 |  |  |  |  |  |  |  | > 100 |  |  | 
5 | O=C(Nc1ccc(Cl)cc1)c1cc2cc(F)ccc2cc1O | > 100 | 4.11 | 16.4 | 7.99 | > 100 | 16.1 | 6.72 | > 100 | 58.9 | 2.5 | 0.613 | 3.24 | 2.5 | 3 | 2.47 |  |  | 2.49 | 2.39 | 1.94
6 | CC1=C2C(=O)C(C)(C)C=C2C(=O)[C@](C)(O)C12CC2 | > 1 | > 0.946 | > 1 | > 1 |  | > 1 | > 1 | > 1 | > 1 |  |  |  |  |  |  |  | > 1 |  |  | 
7 | CCOC(=O)/C(C#N)=C\C=C1/C=CNC2=NCCN21 | > 100 | > 100 | > 100 | > 100 |  | > 100 | > 100 | > 100 | > 100 |  |  |  |  |  |  |  | > 100 |  |  | 
8 | O=C(c1cc2c(C(F)(F)F)onc2c2ccccc12)C(F)(F)F | > 72.1 |  | > 56 | 13.5 |  | 17.4 | > 29.3 | > 100 | 42.2 |  |  |  |  |  |  |  | > 100 |  |  | 
9 | CCN(CC)CCOC(=O)/C(=C/c1ccc(OC)cc1)c1cc(OC)c(OC)c(OC)c1 | > 100 | 34.1 | > 100 | 54.5 |  | 5 | 6.3 | > 100 | > 100 |  |  |  |  |  |  |  |  |  |  | 
10 | CC(C)Cc1ccc(C(C)/C=C2\CCC(CN3CCCC3)C2=O)cc1 (stereo not drawn) | 35 | 36.1 | 9.64 | 33.1 |  | 34.3 | 30.8 | 29.7 | 9.92 |  |  |  |  |  |  |  | 5.18 |  |  | 
11 | N#CC(C(=O)CCC(=O)Nc1ccc(Cl)cc1)c1ccccc1Cl (stereo not drawn) | > 100 | > 100 | > 100 | > 100 |  |  | > 100 | > 100 | > 100 |  |  |  |  |  |  |  |  |  |  | 
12 | c1ccc2c(c1)nnn2CNc1ccc(N2CCOCC2)cc1 | > 100 | > 100 | > 100 | > 100 |  | > 100 | > 100 | > 100 | > 100 |  |  |  |  |  |  |  | > 100 |  |  | 
13 | CCCCCCCC(=O)OCC1OC(n2cc(F)c(=O)[nH]c2=O)C(NC(=O)OCc2ccccc2)C(OC(=O)CCCCCCC)C1O (stereo not drawn) | > 100 | 44.2 | > 100 |  |  | 64.2 | > 100 | > 100 | > 100 |  |  |  |  |  |  |  | 64 |  |  | 
14 | Cc1ccc(NC(=O)CC/C(CC(=O)c2ccc(Cl)cc2)=N\NC(=O)C(=O)NN)cc1C | > 100 | > 100 | > 100 | > 100 |  | > 100 | > 100 | > 100 | > 100 |  |  |  |  |  |  |  | > 100 |  |  | 
15 | NNC(=O)CCC(=O)Nc1ccc(Cl)cc1Cl | > 100 | > 100 | > 100 | > 100 |  | > 100 | > 100 | > 100 | > 100 |  |  |  |  |  |  |  | > 100 |  |  | 
16 | CC(=O)O[C@H]1CCC2[C@@H]3CCC4Nc5c(cnn5-c5ccccc5)C[C@]4(C)C3CC[C@@]21C (stereo partly drawn) | 68.7 | 35.1 | 33.7 | 27.8 |  | 24.6 | 10.7 | 31.3 | 50.3 |  |  |  |  |  |  |  |  |  |  | 
17 | NCC1OC(n2cnc3c(=O)[nH]c(N)nc32)C(O)C1O (stereo not drawn) | > 100 | > 100 | > 100 | > 100 | > 100 | > 100 | > 100 | > 100 | > 100 |  |  |  |  |  |  |  |  |  |  | 
18 | S=P(c1ccccc1)(c1ccccc1)C1(C2(P(=S)(c3ccccc3)c3ccccc3)CC2)CC1 | > 100 |  | > 100 | > 100 |  | > 100 | > 100 | > 100 | > 100 |  |  |  |  |  |  |  | > 100 |  |  | 
19 | COC1CC2C=CC3C4OC2(/C(C)=C/C(C)C(C(C)O)OC1=O)C3C(O)C(C)C4OC(=O)c1ccc[nH]1 (stereo not drawn) | > 100 |  | 71.2 |  | > 100 |  | > 100 | > 100 | > 100 |  |  |  |  |  |  |  | 77 |  |  | 
20 | O=C(COc1ccc(Cl)cc1)N1N=C(c2ccc([N+](=O)[O-])o2)CC1(O)c1ccccc1 (stereo not drawn) | 28.8 | 23.4 | 47.3 | 55.6 |  |  | 22.6 | 21.5 | 20.6 |  |  |  |  |  |  |  | 23.8 |  |  | 
21 | O=S(=O)(NCCCNc1cc(-c2cn(-c3ccccc3)nc2-c2cccc(O)c2)ccn1)c1cccc2ccccc12 | > 100 |  |  | 45.7 | 44.9 | 5.04 | 4.32 | 10 | 44.9 | 3.5 |  |  | 3.4 | 1.18 | 1.64 | 1.84 | 7.33 | 2.75 | 6.11 | 2.87
